Measurements as given in US11980188B2, “Spiro cyclohexanedione derivates as herbicides” (SYNGENTA PARTICIPATIONS AG, priority 2018, dated 2024).

Legend:
Test in all cases: Glasshouse herbicide test, pre- and post-emergence, percentage damage
Type in all cases: in vivo
[1] = tested on: Echinochloa crus-galli (ECHCG); conditions: 250 g/h, evaluated after 13 days, percentage damage on five point scale; for ECHCG POST: post-emergence; for ECHCG PRE: pre-emergence
Method: (§1) Seeds of a variety of test species are sown in standard soil in pots (Lolium perenne (LOLPE), Setaria faberi (SETFA), Alopecurus myosuroides (ALOMY), Echinochloa crus-galli (ECHCG), Avena fatua (AVEFA)). After cultivation for one day (pre-emergence) or after 8 days cultivation (post-emergence) under controlled conditions in a glasshouse (at 24/16° C., day/night; 14 hours light; 65% humidity), the plants are sprayed with an aqueous spray solution derived from the formulation of the technical active ingredient in acetone/water (50:50) solution containing 0.5% Tween 20 (polyoxyethelyene sorbitan monolaurate, CAS RN 9005-64-5). Compounds are applied at […]. The test plants are then grown in a glasshouse under controlled conditions in a glasshouse (at 24/16° C., day/night; 14 hours light; 65% humidity) and watered twice daily. After 13 days for pre and post-emergence, the test is evaluated for the percentage damage caused to the plant. The biological activities are shown in the following table on a five point scale (5=80-100%; 4=60-79%; 3=40-59%; 2=20-39%; 1=0-19%).

Avena fatua (AVEFA) = conditions: 250 g/h, evaluated after 13 days, percentage damage on five point scale; for AVEFA POST: post-emergence; for AVEFA PRE: pre-emergence
Method: as §1

Setaria faberi (SETFA) = conditions: 250 g/h, evaluated after 13 days, percentage damage on five point scale; for SETFA POST: post-emergence; for SETFA PRE: pre-emergence
Method: as §1

Lolium perenne (LOLPE) = conditions: 250 g/h, evaluated after 13 days, percentage damage on five point scale; for LOLPE POST: post-emergence; for LOLPE PRE: pre-emergence
Method: as §1

SMILES | ECHCG POST [1] | ECHCG PRE [1] | AVEFA POST (Avena fatua (AVEFA)) | AVEFA PRE (Avena fatua (AVEFA)) | SETFA POST (Setaria faberi (SETFA)) | SETFA PRE (Setaria faberi (SETFA)) | LOLPE POST (Lolium perenne (LOLPE)) | LOLPE PRE (Lolium perenne (LOLPE))
COc1cc(-c2ccc(F)cc2)cc(C)c1C1C(=O)CC2(CCN(C(=O)NC(=O)C(C)(C)C)CC2)CC1=O [Compound A69] | 5 (5=80-100%) | 5 (5=80-100%) | 5 (5=80-100%) | 2 (2=20-39%) | 5 (5=80-100%) | 5 (5=80-100%) | 5 (5=80-100%) | 4 (4=60-79%)
COc1cc(-c2ccc(F)cc2)cc(C)c1C1C(=O)CC2(CCN(C(=O)CC#N)CC2)CC1=O [Compound A74] | 5 (5=80-100%) | 5 (5=80-100%) | 5 (5=80-100%) | 5 (5=80-100%) | 5 (5=80-100%) | 5 (5=80-100%) | 5 (5=80-100%) | 5 (5=80-100%)
COc1cc(-c2ccc(F)cc2)cc(C)c1C1C(=O)CC2(CCN(C(=O)C(C)(C)C)CC2)CC1=O [Compound A72] | 5 (5=80-100%) | 5 (5=80-100%) | 5 (5=80-100%) | 1 (1=0-19%) | 5 (5=80-100%) | 5 (5=80-100%) | 5 (5=80-100%) | 5 (5=80-100%)
CCS(=O)(=O)N1CCC2(CC1)CC(=O)C(c1c(C)cc(-c3ccc(F)cc3)cc1OC)C(=O)C2 [Compound A64] | 5 (5=80-100%) | 5 (5=80-100%) | 5 (5=80-100%) | 5 (5=80-100%) | 5 (5=80-100%) | 5 (5=80-100%) | 5 (5=80-100%) | 5 (5=80-100%)
Cc1cc(-c2ccc(F)cc2)cc(C)c1C1C(=O)CC2(CCN(C(=O)NC(C)(C)C)CC2)CC1=O [Compound A57] | 5 (5=80-100%) | 5 (5=80-100%) | 4 (4=60-79%) | 1 (1=0-19%) | 5 (5=80-100%) | 5 (5=80-100%) | 5 (5=80-100%) | 5 (5=80-100%)
COc1cc(-c2ccc(F)cc2)cc(C)c1C1C(=O)CC2(CCN(C(=O)C(F)F)CC2)CC1=O [Compound A71] | 5 (5=80-100%) | 5 (5=80-100%) | 5 (5=80-100%) | 5 (5=80-100%) | 5 (5=80-100%) | 5 (5=80-100%) | 5 (5=80-100%) | 5 (5=80-100%)
COCC(=O)N1CCC2(CC1)CC(=O)C(c1c(C)cc(-c3ccc(F)cc3)cc1OC)C(=O)C2 [Compound A67] | 5 (5=80-100%) | 5 (5=80-100%) | 5 (5=80-100%) | 5 (5=80-100%) | 5 (5=80-100%) | 5 (5=80-100%) | 5 (5=80-100%) | 5 (5=80-100%)
Cc1cc(-c2ccc(F)cc2)cc(C)c1C1C(=O)CC2(CCN(C(=O)NC(=O)c3ccccn3)CC2)CC1=O [Compound A62] | 3 (3=40-59%) | 1 (1=0-19%) | 5 (5=80-100%) | 2 (2=20-39%) | 5 (5=80-100%) | 3 (3=40-59%) | 2 (2=20-39%) | 2 (2=20-39%)
COc1cc(-c2ccc(F)cc2)cc(C)c1C1C(=O)CC2(CCN(C(=O)c3ccccn3)CC2)CC1=O [Compound A66] | 5 (5=80-100%) | 5 (5=80-100%) | 5 (5=80-100%) | 5 (5=80-100%) | 5 (5=80-100%) | 5 (5=80-100%) | 5 (5=80-100%) | 5 (5=80-100%)
